Results published in publication PMC4854767 (Clinical cancer research : an official journal of the …, 2016).
Like-named read-outs stand apart in the source and are kept apart here.

How the values were obtained:
[1] = system: MCF-7 cells; test: Sulforhodamine B; assay type: cell-based, human
[2] = GDC-0941 intratumor pharmacokinetics in mice bearing MCF-7 xenografts; assay type: in vivo; conditions: for time of peak intratumor concentration: fulv pretreatment
[3] = system: MCF-7 tumors; test: MCF-7 xenograft tumor volume study; assay type: in vivo, mice
[4] = system: MCF-7 cells; test: Caspase-3/7-activatable luciferase reporter in MCF-7 cells; assay type: cell-based, human; conditions: 1 µM fulv for 2 d before 1 µM GDC-0941 for 12, 24 or 36 h, combination
[5] = system: ZR75-1 cells; test: Caspase-3/7-activatable luciferase reporter in ZR75-1 cells; assay type: cell-based, human; conditions: 1 µM fulv for 2 d before 1 µM GDC-0941 for 12 or 24 h, combination
[6] = system: MCF-7 tumors; conditions: for peak apoptosis, tumor cells (TUNEL): in combination with fulv
[7] = in vivo; conditions: NOD-scid/IL2Rγ−/− (NSG; NOD.Cg-Prkdcscid Il2rgtm1Wjl/SzJ), mouse, plasma, po, 800 mg/kg
[8] = GDC-0941 plasma pharmacokinetics in mice
[9] = system: HCI-003 patient-derived breast cancer xenografts; test: HCI-003 patient-derived xenograft tumor volume study; assay type: in vivo, mice; conditions: fulv alone; HCI-003 xenografts
[10] = system: chronic eosinophilic leukemia; conditions: weekly dosing; cited from earlier work
[11] = low-dose (100 mg/kg), single dose

CS(=O)(=O)N1CCN(Cc2cc3nc(-c4cccc5[nH]ncc45)nc(N4CCOCC4)c3s2)CC1 [GDC-0941]
duration of exposure required to appreciably decrease viability ([1]; MCF-7 cells, GDC-0941 ≤0.25 µM): ≥ 24 h
growth inhibition ([1]; MCF-7 cells, continuous exposure to 1–2 µM GDC-0941): near-complete growth inhibition
time until intratumor concentration below the detectable limit ([2]; high-dose (800 mg/kg)): ≤ 72 h
time of peak intratumor concentration ([2]; high-dose (800 mg/kg)): 9 h
time at which drug was undetectable in tumor ([2]; low-dose (100 mg/kg) with a second dose at 12 h): 36 h
time at which drug was undetectable in tumor [2, 11]: 18 h
time of peak intratumor concentration [2, 11]: 9 h
time of peak intratumor concentration ([2]; two low-dose treatments (100 mg/kg at 0 and 12 h)): 21 h
tumor response ([3]; combination of fulv and GDC-0941, regardless of dose/schedule, MCF-7 tumors): near-complete tumor regression in most cases
body weight ([3]; single-agent GDC-0941, different doses/schedules): without notable loss of body weight
tumor growth ([3]; single-agent GDC-0941, different doses/schedules, MCF-7 tumors 500–1,000 mm^3): only slowed tumor growth
caspase-3/7 reporter activity [4]: increased caspase-3/7 reporter activity compared to either agent alone
caspase-3/7 reporter activity [5]: increased caspase-3/7 reporter activity compared to either agent alone
maintained apoptosis (TUNEL) ([6]; fulv plus bi-daily low-dose GDC-0941 (3 d on, 4 d off), until 72 h): ~ 10%
apoptosis (TUNEL) ([6]; fulv plus daily low-dose GDC-0941, maintained for 72 h): 8–10%
peak apoptosis, tumor cells (TUNEL) ([6]; one low dose (100 mg/kg) GDC-0941, at 24 h): 6.7%
peak apoptosis, tumor cells (TUNEL) ([6]; single high-dose (800 mg/kg) GDC-0941, at 48 h): 30.1%
peak apoptosis, tumor cells (TUNEL) ([6]; two low doses (100 mg/kg at 0 and 12 h) GDC-0941, at 24 h): 15.9%
Tmax [7]: 15 to 30 min
time until plasma concentration below the limit of detection ([8]; 100 mg/kg): ≤ 24 h
plasma concentration in plateau phase ([8]; 100 mg/kg, plateau after 1 h, maintained for 8 h): 6.8 to 10.7 µM
time until plasma concentration below detectable limits ([8]; 800 mg/kg): ≤ 72 h
plasma concentration in plateau phase ([8]; 800 mg/kg, plateau maintained through 24 h): 7.9 to 15 µM

C[C@]12CC[C@@H]3c4ccc(O)cc4C[C@@H](CCCCCCCCC[S+]([O-])CCCC(F)(F)C(F)(F)F)[C@H]3[C@@H]1CC[C@@H]2O (stereo partly drawn) [fulv]
growth of MCF-7 cells ([1]; single-agent fulv (1 µM)): effectively inhibited growth
tumor response ([3]; fulv alone, larger MCF-7 tumors (500–1,000 mm^3)): generally unresponsive
tumor growth [9]: did not affect tumor growth

Cc1ccc(NC(=O)c2ccc(CN3CCN(C)CC3)cc2)cc1Nc1nccc(-c2cccnc2)n1 [imatinib]
patients in whom recurrence was prevented [10]: 7/7
